Experimental data taken from the supplement of paper PMC6045584.

How the values were obtained:
Assay in all cases: area under dose-response curve of surviving fraction (unscaled, Aref=0) (surviving fraction x log10(nM)); higher = more resistant
Conditions in all cases: exposure time: 5 days; dose range 0.5-1000 nM
[1] = compound: CNC(=O)c1cc(Oc2ccc(NC(=O)Nc3ccc(Cl)c(C(F)(F)F)c3)cc2)ccn1 [SORAFENIB]
Procedure, shortened: (§1)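 Tumour cell lines in 384-well plates were exposed to eight inhibitor concentrations, from 0.5 to 1000 nM, for five days, and viability was read by CellTiter-Glo luminescence in three screens per line. Signals were normalised to DMSO-only wells, and 3-parameter logistic regression in the drc R package fitted dose-response survival curves to the surviving fractions. Area under the curve is given as the unscaled activity area. That area is taken over log10 dose with Aref = 0.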

[2] = compound: CNCc1ccc(-c2[nH]c3cc(F)cc4c3c2CCNC4=O)cc1
Procedure, shortened: as §1

[3] = compound: C[C@@H](Oc1cc(-c2cnn(C3CCNCC3)c2)cnc1N)c1c(Cl)ccc(F)c1Cl
Procedure, shortened: as §1

[4] = compound: C[C@]12CC[C@H](O)CC1=CC[C@@H]1[C@@H]2CC[C@]2(C)C(c3cccnc3)=CC[C@@H]12 [ABIRATERONE]
Procedure, shortened: as §1

[5] = compound: O=C(c1cc(Cc2n[nH]c(=O)c3ccccc23)ccc1F)N1CCN(C(=O)C2CC2)CC1 [OLAPARIB]
Procedure, shortened: as §1

[6] = compound: Oc1nc(-c2ccc(C(F)(F)F)cc2)nc2c1CSCC2 [XAV-939]
Procedure, shortened: as §1

[7] = compound: COc1cc2ncnc(Nc3ccc(F)c(Cl)c3)c2cc1NC(=O)/C=C/CN1CCCCC1
Procedure, shortened: as §1

| Test System | area under dose-response curve [1] | area under dose-response curve [2] | area under dose-response curve [3] | area under dose-response curve [4] | area under dose-response curve [5] | area under dose-response curve [6] | area under dose-response curve [7] |
| --- | --- | --- | --- | --- | --- | --- | --- |
| HCC38 BREAST | 4.12 | 2.19 | 3.21 | 4.04 | 2.57 | 3.17 |  |
| HMLE3 BREAST |  |  | 2.86 | 3.42 | 3.22 | 3.15 | 3.01 |
| HMT3552 BREAST |  | 2.94 |  |  |  |  |  |
| HS578T BREAST | 2.64 | 2.93 | 2.75 |  | 2.79 | 3.76 |  |
| HCC70 BREAST | 3.81 | 3.67 | 3.26 | 3.59 | 3.59 |  | 3.17 |
| G292 BONE | 3.26 | 3.17 | 2.88 | 3.4 | 3.17 | 3.14 | 3.03 |
